From patent US20250034182A1, “PHOSPHOLIPID COMPOUNDS AND METHODS OF MAKING AND USING THE SAME” (priority 2021, published 2025)

Experiments:
in vitro = assay type: cell-based; conditions: human
Description: H1-HeLa cell viability was measured using the CellTiter-Glo® Luminescent Cell Viability Assay kit (Promega, Cat #G7573) according to the manufacturer's protocol. H1-HeLa cells were maintained in Dulbecco's Modified Eagle's Medium with high glucose (Gibco, Cat #: 11995073) supplemented with 10% FBS (HyClone, Cat #: SH303396.03), 100 units/mL penicillin and 100 µg/mL streptomycin (Gibco, Cat #: 15140122). One day before compound treatment, H1-HeLa cells were seeded at […] into 96-well plates (Corning, Cat #3904) in Opti-MEM (Gibco, Cat #: 31985070) supplemented with 2% FBS, and were incubated at 37° C. in a 100% humid atmosphere containing 5% (v/v) CO2. After overnight incubation, the cells were treated with three-fold serial dilutions of the compound. At 96 hours post treatment, CellTiter-Glo reagents were added into each well and luminescence signals were recorded by an EnVision plate reader. The relative cell viability was calculated by normalizing the absorbance of the compound-treated groups to that of the DMSO-treated groups (set as 100% viability) and 10 μM puromycin treated groups (set as 0% viability). The CC50 (compound concentration for reducing 50% of cell viability) was calculated using a nonlinear regression model (four parameters).

[1] = test system: Recombinant Respiratory Syncytial virus strain A2 containing the firefly luciferase reporter (RSV-Fluc) in NHBE cells; assay: RSV NHBE FLuc EC50 (Example I); assay type: cell-based; conditions: human respiratory syncytial virus, 72 h, read-out: RSV NHBE FLuc EC50 (nM) (per Ex. I)
Source text: Normal human bronchial epithelial (NHBE) cells are purchased from Lonza (Walkersville, MD Cat #CC-2540) and maintained in Bronchial Epithelial Cell Growth Medium (BEGM) (Lonza, Walkersville, MD, Cat #CC-3170) with all provided supplements in the BulletKit. Cells are passaged 2-3 times per week to maintain sub-confluent densities and are used for experiments at passages 2-4.
Recombinant Respiratory Syncytial virus strain A2 containing the firefly luciferase reporter between the P and M genes (RSV-Fluc, 6.3×10^6 TCID50/mL) is purchased from Viratree (Durham, NC, Cat #R^145).
NHBE cells (5×10^3/well) are seeded in 100 μL white wall/clear bottom 96-well plates (Corning) with culture medium and are incubated for 24 hours at 37° C. with 5% CO2. On the following day, three-fold serial dilutions of compounds prepared in DMSO are added to the wells using the HP D300e digital dispenser with normalization to the highest concentration of DMSO in all wells. The cells are then infected with RSV-Fluc diluted with BEGM media at an MOI of 0.1 for a final volume of 200 μL media/well. Uninfected and untreated wells are included as controls to determine compound efficacy against RSV-Fluc. Following incubation with compound and virus for three days at 37° C. with 5% CO2, 100 μL of culture supernatant is removed from each well and replaced with 100 μL of ONE-Glo luciferase reagent (Promega, Madison, WI, Cat #E6110). The plates are gently mixed by rocking for 10 minutes at 21° C. and luminescence signal is measured using an Envision plate reader (PerkinElmer). Values are normalized to the uninfected and infected DMSO controls (0% and 100% infection, respectively). Non-linear regression analysis is applied to determine the compound concentration at which 50% luminescence signal is reduced (EC50) using the XLfit4 add-in for MICROSOFT®EXCEL®. All experiments are performed in duplicate with two technical repeats each.

With `CCCCCCCCCCCCCCCCCCCC[C@H](COP(=O)(O)OC[C@@]1(C#N)O[C@@H](c2ccc3c(N)ncnn23)[C@H](O)[C@@H]1O)OCc1cc(F)cc(C#N)c1` [Compound 34, ((2R,3S,4R)-5-(4-aminopyrrolo[2,1-f][1,2,4]triazin-7-yl)-2-cyano-3,4-dihydroxytetrahydrofuran-2-yl)methyl ((R)-2-((3-cyano-5-fluorobenzyl)oxy)docosyl) hydrogen phosphate] the CC50 at 96 h (in vitro) was 4690 nM.
In the case of `CCCCCCCCCCCCCCCCCCOCC(COc1cc(F)cc(C#N)c1)COP(=O)(O)OC[C@@]1(C#N)O[C@@H](c2ccc3c(N)ncnn23)[C@H](O)[C@@H]1O` (stereo partly drawn) [Compound 43, ((2R,3S,4R,5S)-5-(4-aminopyrrolo[2,1-f][1,2,4]triazin-7-yl)-2-cyano-3,4-dihydroxytetrahydrofuran-2-yl)methyl (3-(3-cyano-5-fluorophenoxy)-2-((octadecyloxy)methyl)propyl) hydrogen phosphate], the EC50 [1] is reported as 129 nM and the CC50 at 96 h (in vitro) is reported as 4000 nM.
Compound `CCCCCCCCCCCCCCCCCCOC[C@H](COP(=O)(O)OC[C@@]1(C#N)O[C@@H](c2ccc3c(N)ncnn23)[C@H](O)[C@@H]1O)Oc1ccc(C#N)c(OC(C)C)c1` [Compound 23, ((2R,3S,4R,5S)-5-(4-aminopyrrolo[2,1-f][1,2,4]triazin-7-yl)-2-cyano-3,4-dihydroxytetrahydrofuran-2-yl)methyl ((R)-2-(4-cyano-3-isopropoxyphenoxy)-3-(octadecyloxy)propyl) hydrogen phosphate] has an EC50 [1] of 16 nM and a CC50 at 96 h (in vitro) of 10800 nM.
`CCCCCCCCCCCCCCOC[C@H](COP(=O)(O)OC[C@@]1(C#N)O[C@@H](c2ccc3c(N)ncnn23)[C@H](O)[C@@H]1O)OCc1ccc(C#N)cc1F` [Compound 75, ((2R,3S,4R,5S)-5-(4-aminopyrrolo[2,1-f][1,2,4]triazin-7-yl)-2-cyano-3,4-dihydroxytetrahydrofuran-2-yl)methyl ((R)-2-((4-cyano-2-fluorobenzyl)oxy)-3-(tetradecyloxy)propyl) hydrogen phosphate] showed an EC50 [1] of less than 10.9 nM.
With `CCCCCCCCCCCCCCCCCCC[C@H](COP(=O)(O)OC[C@@]1(C#N)O[C@@H](c2ccc3c(N)ncnn23)[C@H](O)[C@@H]1O)OCc1ccc(C#N)c(OC(C)C)c1` [Compound 28, ((2R,3S,4R,5S)-5-(4-aminopyrrolo[2,1-f][1,2,4]triazin-7-yl)-2-cyano-3,4-dihydroxytetrahydrofuran-2-yl)methyl ((R)-2-((4-cyano-3-isopropoxybenzyl)oxy)henicosyl) hydrogen phosphate] the EC50 [1] was 28 nM and the CC50 at 96 h (in vitro) was 9900 nM.
With `CCCCCCCCCCCCCCCCC[C@H](COP(=O)(O)OC[C@@]1(C#N)O[C@@H](c2ccc3c(N)ncnn23)[C@H](O)[C@@H]1O)OCc1cc(Cl)cc(C#N)c1` [Compound 76, ((2R,3S,4R)-5-(4-aminopyrrolo[2,1-f][1,2,4]triazin-7-yl)-2-cyano-3,4-dihydroxytetrahydrofuran-2-yl)methyl ((R)-2-((3-chloro-5-cyanobenzyl)oxy)nonadecyl) hydrogen phosphate] the CC50 at 96 h (in vitro) was 6390 nM.
Work on `CCCCCCCCCCCCCCCCCCC[C@H](COP(=O)(O)OC[C@@]1(C#N)O[C@@H](c2ccc3c(N)ncnn23)[C@H](O)[C@@H]1O)Oc1ccc(C#N)c(OC(C)C)c1` [Compound 38, ((2R,3S,4R,5S)-5-(4-aminopyrrolo[2,1-f][1,2,4]triazin-7-yl)-2-cyano-3,4-dihydroxytetrahydrofuran-2-yl)methyl ((R)-2-(4-cyano-3-isopropoxyphenoxy)henicosyl) hydrogen phosphate] yielded an EC50 [1] of 23 nM and a CC50 at 96 h (in vitro) of 6190 nM.
`CCCCCCCCCCCCCCCCCCOC[C@H](COP(=O)(O)OC[C@@]1(C#N)O[C@@H](c2ccc3c(N)ncnn23)[C@H](O)[C@@H]1O)OCc1ccc(C#N)c(-n2cncn2)c1` [Compound 16, ((2R,3S,4R,5S)-5-(4-aminopyrrolo[2,1-f][1,2,4]triazin-7-yl)-2-cyano-3,4-dihydroxytetrahydrofuran-2-yl)methyl ((R)-2-((4-cyano-3-(1H-1,2,4-triazol-1-yl)benzyl)oxy)-3-(octadecyloxy)propyl) hydrogen phosphate] gave an EC50 [1] of less than 6 nM.
Compound `CCCCCCCCCCCCCCCCOC[C@@H](COP(=O)(O)OC[C@@]1(C#N)O[C@@H](c2ccc3c(N)ncnn23)[C@H](O)[C@@H]1O)OCc1cc(F)cc(C#N)c1` [Compound 88, ((2R,3S,4R,5S)-5-(4-aminopyrrolo[2,1-f][1,2,4]triazin-7-yl)-2-cyano-3,4-dihydroxytetrahydrofuran-2-yl)methyl ((S)-2-((3-cyano-5-fluorobenzyl)oxy)-3-(hexadecyloxy)propyl) hydrogen phosphate] has a CC50 at 96 h (in vitro) of 2210 nM.
`CCCCCCCCCCCCCCCCCCC[C@H](COP(=O)(O)OC[C@@]1(C#N)O[C@@H](c2ccc3c(N)ncnn23)[C@H](O)[C@@H]1O)OCc1cc(F)cc(C#N)c1` [Compound 25, ((2R,3S,4R,5S)-5-(4-aminopyrrolo[2,1-f][1,2,4]triazin-7-yl)-2-cyano-3,4-dihydroxytetrahydrofuran-2-yl)methyl ((R)-2-((3-cyano-5-fluorobenzyl)oxy)henicosyl) hydrogen phosphate] showed an EC50 [1] of 98 nM and a CC50 at 96 h (in vitro) of 8490 nM.
Compound `CCCCCCCCCCCCCCCCCC[C@H](COP(=O)(O)OC[C@@]1(C#N)O[C@@H](c2ccc3c(N)ncnn23)[C@H](O)[C@@H]1O)OCc1cc(F)cc(C#N)c1` [Compound 84, ((2R,3S,4R,5S)-5-(4-aminopyrrolo[2,1-f][1,2,4]triazin-7-yl)-2-cyano-3,4-dihydroxytetrahydrofuran-2-yl)methyl ((R)-2-((3-cyano-5-fluorobenzyl)oxy)icosyl) hydrogen phosphate] has a CC50 at 96 h (in vitro) of 1820 nM.
Work on `CCCCCCCCCCCCCCOC[C@H](COP(=O)(O)OC[C@@]1(C#N)O[C@@H](c2ccc3c(N)ncnn23)[C@H](O)[C@@H]1O)Oc1cc(C#N)ccn1` [Compound 69, ((2R,3S,4R)-5-(4-aminopyrrolo[2,1-f][1,2,4]triazin-7-yl)-2-cyano-3,4-dihydroxytetrahydrofuran-2-yl)methyl ((R)-2-((4-cyanopyridin-2-yl)oxy)-3-(tetradecyloxy)propyl) hydrogen phosphate] yielded an EC50 [1] of 29 nM.
Work on `CCCCCCCCCCCCCCCCCCOC[C@H](COP(=O)(O)OC[C@@]1(C#N)O[C@@H](c2ccc3c(N)ncnn23)[C@H](O)[C@@H]1O)OCc1ccc(C#N)nc1` [Compound 19, ((2R,3S,4R,5S)-5-(4-aminopyrrolo[2,1-f][1,2,4]triazin-7-yl)-2-cyano-3,4-dihydroxytetrahydrofuran-2-yl)methyl ((R)-2-((6-cyanopyridin-3-yl)methoxy)-3-(octadecyloxy)propyl) hydrogen phosphate] yielded an EC50 [1] of 98 nM.
